Laboratory results taken from EP4786483A1, “AURISTATIN DERIVATIVE AND ANTIBODY-DRUG CONJUGATE THEREOF” (priority 2023, dated 2025).
Read-outs that look alike come from different tables or passages of the source.

Experiments:
Format in all cases: cell-based
[1] = tested on: human breast cancer cells MDA-MB-468; assay: Cytotoxicity test for compounds (CellTiter-Glo cell proliferation inhibition); settings: Homo sapiens, MDA-MB-468, 72 h
Method: (§1) Biological Test Example 1: Cytotoxicity Test for Compounds
(§2) • 96-well clear flat-bottom white plate (Corning, #3610) • RPMI1640 culture medium (Gibco, #A10491-01) • Fetal Bovine Serum (Sigma-Aldrich, #F8687-500ML) • CellTiter-Glo® Luminescent Cell Viability Assay (Promega, # G7572/G7571)
(§3) Human gastric cancer cells NCI-N87 (ATCC, Cat. No.: CRL-5822), human breast cancer cells MDA-MB-468 (Cell Bank of the Committee for Type Culture Collection of the Chinese Academy of Sciences, Cat. No.: TCHu136), and human breast cancer cells KPL-4 (Nanjing Cobioer Biosciences Co., Ltd., Cat. No.: CBP60379) were washed with PBS and digested with 0.25% Trypsin-EDTA trypsin for about 3-10 min. The digestion was terminated with a complete cell culture medium. The cells were centrifuged at 1000 rpm for 5 min, and the supernatant was discarded. The cells were resuspended in a complete cell culture medium. The cell number was counted using a cell counter, and the cells were adjusted to the desired density. 90.0 µL of the cell suspension was added to each well at 3000 cells/well. The cell plate was incubated in a cell incubator at 37°C with 5% CO2 overnight.
(§4) In the experiment, a DMSO control group and test sample groups were set. The cell plate was removed from the incubator to observe cell adherence. After the cells adhered, 10.00 µL of the sample (starting from a final concentration of 10 µM, 5-fold dilution, 9 concentrations) was added to each well. After the mixture was gently shaken uniformly, the plate was incubated in the incubator.
(§5) After 3 days of incubation, 100.0 µL/well of CellTiter-Glo™ (Promega, Cat. No.: G7572/G7571) working solution was added. The plate was shaken on a thermostatic shaker to lyse the cells. After 10 min, the plate was read on a microplate reader.
(§6) Data analysis: GraphPad Prism 8.0 software was used to plot a graph with the Log value of the sample concentration as the abscissa and the Inhibition% as the ordinate. The data were analyzed by Nonlinear regression (curve fit) to obtain the IC50 value of each test sample. Table 1. Inhibition activity of compounds of the present disclosure on cell proliferation

[2] = tested on: Human gastric cancer cells NCI-N87; assay: as above; settings: Homo sapiens, NCI-N87, 72 h
Method: as §1, §2, §3, §4, §5, §6

[3] = tested on: human breast cancer cells KPL-4; assay: as above; settings: Homo sapiens, KPL4, 72 h
Method: as §1, §2, §3, §4, §5, §6

[4] = tested on: CD34^+ hematopoietic stem/progenitor cells; assay: Hematologic toxicity of compounds (CD34+ HSC viability, CTG); settings: 240 h; cytotoxic drugs; treatment for 10 days; CTG cell viability
Method: Experimental objective: The effects of cytotoxic drugs on the differentiation and development of CD34^+ hematopoietic stem/progenitor cells into the megakaryocytic lineage were investigated, so as to evaluate their potential hematologic toxicity of causing thrombocytopenia.
Experimental design: After resuscitation, bone marrow-mobilized peripheral blood-derived HSCs were seeded at 2000 cells/well/180 µL in an ultra-low attachment 96-well round-bottom plate and stabilized for 4 h. The cells were treated with compounds by performing a 5-fold gradient dilution starting from the highest dose of 1 µM, resulting in a total of 9 concentration points, and this treatment was maintained continuously for 10 days. Cell viability was detected using the CTG reagent (CellTiter-Glo luminescent cell viability detection kit, manufacturer: Promega, Cat. No.: G7571). Table 2. Hematologic toxicity test results of cytotoxic drugs

[5] = 3 days of incubation, CellTiter-Glo, read-out: MDA-MD-468/IC50
[6] = 3 days of incubation, CellTiter-Glo, read-out: NCI-87/IC50
[7] = 3 days of incubation, CellTiter-Glo, read-out: KPL-4/IC50

SMILES | IC50 [1, 5] [nM] | IC50 [2, 6] [nM] | IC50 [3, 7] [nM] | IC50 ([1]; read-out: MDA-MD-468/IC50 (nM)) [nM] | IC50 ([2]; read-out: NCI-87/IC50 (nM)) [nM] | IC50 ([3]; read-out: KPL-4/IC50 (nM)) [nM] | IC50 [4] [nM]
CC[C@H](C)[C@@H]([C@@H](CC(=O)N1CCC[C@H]1[C@H](OC)[C@@H](C)C(=O)N(O)CCc1cccc(N)c1)OC)N(C)C(=O)[C@@H](NC(=O)[C@H](C(C)C)N(C)C)C(C)C [Example 8, (S)-N-((3R,4S,SS)-1-((S)-2-((1R,2R)-3-((3-aminophenethyl)(hydroxy)amino)-1-methoxy-2-methyl-3-oxopropyl)pyrrolidin-1-yl)-3-methoxy-5-methyl-1-oxoheptan-4-yl)-2-((S)-2-(dimethylamino)-3-methylbutanamido)-N,3-dimethylbutanamide] | 0.56 | 0.66 | 0.14 | – | – | – | –
CC[C@H](C)[C@@H]([C@@H](CC(=O)N1CCC[C@H]1[C@H](OC)[C@@H](C)C(=O)O[C@H](CC#N)Cc1cccc(N)c1)OC)N(C)C(=O)[C@@H](NC(=O)[C@H](C(C)C)N(C)C)C(C)C [Example 9, (S)-1-(3-aminophenyl)-3-cyanopropan-2-yl (2R,3R)-3-((S)-1-((3R,4S,5S)-4-((S)-2-((S)-2-(dimethylamino)-3-methylbutanamido)-N,3-dimethylbutanamido)-3-methoxy-5-methylheptanoyl)pyrrolidin-2-yl)-3-methoxy-2-methylpropanoate] | 3.34 | 3.84 | 0.74 | – | – | – | –
C=CCN(C(=O)[C@H](C)[C@@H](OC)[C@@H]1CCCN1C(=O)C[C@@H](OC)[C@H]([C@@H](C)CC)N(C)C(=O)[C@@H](NC(=O)[C@H](C(C)C)N(C)C)C(C)C)[C@H](CC#N)Cc1cccc(N)c1 [Example 10, (S)-N-((3R,4S,5S)-1-((S)-2-((1R,2R)-3-(allyl((S)-1-(3-aminophenyl)-3-cyanopropan-2-yl)amino)-1-methoxy-2-methyl-3-oxopropyl)pyrrolidin-1-yl)-3-methoxy-5-methyl-1-oxoheptan-4-yl)-2-((S)-2-(dimethylamino)-3-methylbutanamido)-N,3-dimethylbutanamide] | 1.97 | 3.35 | 1.25 | – | – | – | –
CC[C@H](C)[C@@H]([C@@H](CC(=O)N1CCC[C@H]1[C@H](OC)[C@@H](C)C(=O)O[C@H](C)Cc1cccc(N)c1)OC)N(C)C(=O)[C@@H](NC(=O)[C@H](C(C)C)N(C)C)C(C)C [Example 11, (R)-1-(3-aminophenyl)propan-2-yl (2R,3R)-3-((S)-1-((3R,4S,5S)-4-((S)-2-((S)-2-(dimethylamino)-3-methylbutanamido)-N,3-dimethylbutanamido)-3-methoxy-5-methylheptanoyl)pyrrolidin-2-yl)-3-methoxy-2-methylpropanoate] | 3 | 0.15 | 0.1 | – | – | – | –
CC[C@H](C)[C@@H]([C@@H](CC(=O)N1CCC[C@H]1[C@H](OC)[C@@H](C)C(=O)O[C@@H](C)Cc1cccc(N)c1)OC)N(C)C(=O)[C@@H](NC(=O)[C@H](C(C)C)N(C)C)C(C)C [Example 12, (S)-1-(3-aminophenyl)propan-2-yl (2R,3R)-3-((S)-1-((3R,4S,5S)-4-((S)-2-((S)-2-(dimethylamino)-3-methylbutanamido)-N,3-dimethylbutanamido)-3-methoxy-5-methylheptanoyl)pyrrolidin-2-yl)-3-methoxy-2-methylpropanoate] | 11.8 | 4.05 | 1.42 | – | – | – | –
CC[C@H](C)[C@@H]([C@@H](CC(=O)N1CCC[C@H]1[C@H](OC)[C@@H](C)C(=O)OCCc1cccc(N)c1)OC)N(C)C(=O)[C@@H](NC(=O)[C@H](C(C)C)N(C)C)C(C)C [Example 13] | – | – | – | 0.56 | 0.58 | 0.18 | –
CC[C@H](C)[C@@H]([C@@H](CC(=O)N1CCC[C@H]1[C@H](OC)[C@@H](C)C(=O)O[C@H](CO)Cc1cccc(N)c1)OC)N(C)C(=O)[C@@H](NC(=O)[C@H](C(C)C)N(C)C)C(C)C [Example 14] | – | – | – | 3.82 | 5.13 | 1.13 | –
CC[C@H](C)[C@@H]([C@@H](CC(=O)N1CCC[C@H]1[C@H](OC)[C@@H](C)C(=O)O[C@H](CN=[N+]=[N-])Cc1cccc(N)c1)OC)N(C)C(=O)[C@@H](NC(=O)[C@H](C(C)C)N(C)C)C(C)C [Example 15] | – | – | – | 2.74 | 11.3 | 2 | –
C#CC[C@H](Cc1cccc(N)c1)OC(=O)[C@H](C)[C@@H](OC)[C@@H]1CCCN1C(=O)C[C@@H](OC)[C@H]([C@@H](C)CC)N(C)C(=O)[C@@H](NC(=O)[C@H](C(C)C)N(C)C)C(C)C [Example 17] | – | – | – | < 0.0256 | < 0.0256 | < 0.0256 | –
C=CC[C@H](Cc1cccc(N)c1)OC(=O)[C@H](C)[C@@H](OC)[C@@H]1CCCN1C(=O)C[C@@H](OC)[C@H]([C@@H](C)CC)N(C)C(=O)[C@@H](NC(=O)[C@H](C(C)C)N(C)C)C(C)C [Example 18] | – | – | – | < 0.0256 | < 0.0256 | < 0.0256 | –
C=CC(Cc1cccc(N)c1)OC(=O)[C@H](C)[C@@H](OC)[C@@H]1CCCN1C(=O)C[C@@H](OC)[C@H]([C@@H](C)CC)N(C)C(=O)[C@@H](NC(=O)[C@H](C(C)C)N(C)C)C(C)C (stereo partly shown) [Example 19] | – | – | – | < 0.0256 | < 0.0256 | < 0.0256 | –
CC[C@H](C)[C@@H]([C@@H](CC(=O)N1CCC[C@H]1[C@H](OC)[C@@H](C)C(=O)O[C@H](CF)Cc1cccc(N)c1)OC)N(C)C(=O)[C@@H](NC(=O)[C@H](C(C)C)N(C)C)C(C)C [Example 24] | – | – | – | < 0.0256 | < 0.0256 | < 0.0256 | –
CC[C@H](C)[C@@H]([C@@H](CC(=O)N1CCC[C@H]1[C@H](OC)[C@@H](C)C(=O)O[C@@H](Cc1cccc(N)c1)C(F)F)OC)N(C)C(=O)[C@@H](NC(=O)[C@H](C(C)C)N(C)C)C(C)C [Example 25] | – | – | – | < 0.0256 | < 0.0256 | < 0.0256 | –
CCC(C)C(C(CC(=O)N1CCCC1C(OC)C(C)C(=O)OC(Cc1cccc(N)c1)C(=O)NC)OC)N(C)C(=O)C(NC(=O)C(C(C)C)N(C)C)C(C)C (stereo not shown) [Example 30] | 0.72 | 5.62 | 2.42 | – | – | – | –
C=C(C)C(Cc1cccc(N)c1)OC(=O)[C@H](C)[C@@H](OC)[C@@H]1CCCN1C(=O)C[C@@H](OC)[C@H]([C@@H](C)CC)N(C)C(=O)[C@@H](NC(=O)[C@H](C(C)C)N(C)C)C(C)C (stereo partly shown) [Example 31] | – | – | – | 0.11 | < 0.0256 | < 0.0256 | –
CC[C@H](C)[C@@H]([C@@H](CC(=O)N1CCC[C@H]1[C@H](OC)[C@@H](C)C(=O)OC1(Cc2cccc(N)c2)CC1)OC)N(C)C(=O)[C@@H](NC(=O)[C@H](C(C)C)N(C)C)C(C)C [Example 32] | – | – | – | < 0.0256 | < 0.0256 | < 0.0256 | –
CC[C@H](C)[C@@H]([C@@H](CC(=O)N1CCC[C@H]1[C@H](OC)[C@@H](C)C(=O)N(CC#N)CCc1cccc(N)c1)OC)N(C)C(=O)[C@@H](NC(=O)[C@H](C(C)C)N(C)C)C(C)C [Example 45, (S)-N-((3R,4S,5S)-1-((S)-2-((1R,2R)-3-((3-aminophenethyl)(cyanomethyl)amino)-1-methoxy-2-methyl-3-oxopropyl)pyrrolidin-1-yl)-3-methoxy-5-methyl-1-oxoheptan-4-yl)-2-((S)-2-(dimethylamino)-3-methylbutanamido)-N,3-dimethylbutanamide] | – | 2.21 | 0.65 | – | – | – | 0.235
CC[C@H](C)[C@@H]([C@@H](CC(=O)N1CCC[C@H]1[C@H](OC)[C@@H](C)C(=O)N(C)CCc1cccc(N)c1)OC)N(C)C(=O)[C@@H](NC(=O)[C@H](C(C)C)N(C)C)C(C)C [WO2023081230A1 Compound 1, reference compound] | – | – | – | – | – | – | 0.017
